From US20130005743A1, “New positive allosteric modulators of nicotinic acetylcholine receptor” (H. Lundbeck A/S, priority 2011, published 2013)

What was measured:
human α7 receptor = biological target: T1, human α7 receptor (Homo sapiens, UniProt P36544); assay: α7 NNR flux assay (FDSS Ca assay, positive allosteric modulation of acetylcholine response); format: cell-based; conditions: human α7 receptor stably expressed in rat GH4C1 cells; acetylcholine 20 μM; % modulation relative to PNU-120596 set to 100%
T1 construct: host or cells: rat GH4C1 cell line
Procedure: The nicotinic acetylcholine receptor α7 is a calcium-permeable ion channel, whose activity can be measured by over expression in mammalian cells or oocytes. In this version of the assay, the human α7 receptor is stably expressed in the rat GH4C1 cell line. The assay was used to identify positive allosteric modulators (PAMs) of the α7 receptor. Activation of the channel was measured by loading cells with the calcium-sensitive fluorescent dye. Calcium-4 (Assay kit from Molecular Devices), and then measuring real-time changes, in fluorescence upon treatment with test compounds.
The cell line ChanClone GH4C1-nAChRalpha7 from Genionics was seeded from frozen stock in 384-well plates in culture media 2-3 days before experiment to form an approximately 80% confluent layer on the day of experiment.
The cell culture were split into “22.5 cm×22.5 cm”-plates with approximately 100×10^3 cells/cm^2. After four days incubation in a humidified incubator at 37° C. and 5% CO2, it had grown to an 80-90% confluent layer, and the cells were harvested.
Two or three days before the experiment the cells were seeded in 384 well plates from Greiner bio-one (781946, CELLCOAT, Poly-D-Lysine, black, μClear).
The cells were seeded in 384 well plates with 30 μL/well (30000 cells/well) while stirring the cell suspension or otherwise preventing the cells from precipitating.
The loading buffer was 5% v/v Calcium-4 Kit and 2.5 mM Probenecid in assay buffer.
Culture media was removed from the cell plates and 20 μL loading buffer was added in each well. The cell plates were placed in trays and incubated 90 minutes in the incubator (37° C.). Thereafter the plates were incubated 30 minutes at room temperature, still protected from light.
The assay buffer was HBSS with 20 mM HEPES, pH 7.4 and 3 mM CaCl2.
[…] 10 mM compound solution in DMSO was diluted in 50 μL assay buffer. The final test concentrations in the cell plates were 20-10-5-2.5-1.25-0.625-0.312-0.156-0.078-0.039 μM. Assay buffer and 3 μM PNU-120596 were used for control. The agonist acetylcholine was added to a final concentration of 20 μM (˜EC100). In the FDSS7000 the Ex480-Em540 was measured with 1 second intervals. The baseline was made of 5 frames before addition of test compounds, and 95 frames more were made before addition of acetylcholine. The measurement stopped 30 frames after the 2nd addition. Raw data for each well were collected as “the maximum fluorescence count” in the interval 100-131 seconds and as “the average fluorescence count” in the interval 96-100 seconds. The positive allosteric modulation in the 2nd addition was the enhancement of agonist response with test compound compared to agonist alone.
Results were calculated as % modulation of test compound compared to the reference PNU-120596 set to 100%.

α7 nACh receptors = assay: α7 NNR oocyte assay (electrophysiological recordings in Xenopus oocytes); format: cell-based, human or rat; conditions: compound at 10 μM co-applied with ACh (30 μM), fold modulation of the control response; for Fold modulation, peak: peak response; for Fold modulation, AUC: total charge (AUC)
Procedure: Expression of α7 nACh Receptors in Xenopus Oocytes.
Oocytes were surgically removed from mature female Xenepus laevis anaesthetized in 0.4% MS-222 for 10-15 min. The oocytes were then digested at room temperature for 2-3 hours with 0.5 mg/mL collagenase (type IA Sigma-Aldrich) in OR2 buffer (82.5 mM NaCl, 2.0 mM KCl, 1.0 mM MgCl2 and 5.0 mM HEPES, pH 7.6). Oocytes avoid of the follicle layer were selected and incubated for 24 hours in Modified Barth's Saline buffer (88 mM NaCl, 1 mM KCl, 15 mM HEPES, 2.4 mM NaHCO3, 0.41 mM CaCl2, 0.82 mM MgSO4, 0.3 mM Ca(NO3)2) supplemented with 2 mM sodium pyruvate, 0.1 U/l penicillin and 0.1 μg/1 streptomycin. Stage 1V oocytes were identified and injected with 4.2-48 nl of nuclease free water containing 0.1-1.2 ng of cRNA coding for human α7 nACh receptors or 3.0-32 ng of cRNA coding for rat α7 nACh receptors and incubated at 18° C. for 1-10 days when they were used for electrophysiological recordings.
Electrophysiological Recordings of α7 nACh Receptors Expressed in Oocytes.
Oocytes were used for electrophysiological recordings 1-10 days after injection. Oocytes were placed in a 1 mL bath and perfused with Ringer buffer (115 mM NaCl, 2.5 mM KCl, 10 mM HEPES, 1.8 mM CaCl2, 0.1 mM MgCl2, pH 7.5)'. Cells were impaled with agar plugged 0.2-1 MΩ electrodes containing 3 M KCl and voltage clamped at −90 mV by a GeneClamp 500B amplifier. The experiments were performed at room temperature. Oocytes were continuously perfused with Ringer buffer and the drugs were applied in the perfusate. ACh (30 μM) applied for 30 sec were used as the standard agonist for activation of the α7 nACh receptors. In the standard screening set-up the new test compound (10 μM or 30 μM) were applied for 1 min of pre-application allowing for evaluation of agonistic activity followed by 30 sec of co-application with ACh (30 μM) allowing for evaluation of PAM activity. The response of co-application was compared to the agonistic response obtained with ACh alone. The drug induced effects on both the peak response and the total charge (AUC) response were calculated thus giving the effect of drug induced PAM activity as fold modulation of the control response. Table 2 indicates fold modulation of compounds No. 21, 22, 24, 34, 35 and 36 at determined at 10 μM.
For more elaborate studies doses-response curves can be performed for evaluation of max-fold modulation and EC50 values for both peak and AUC responses.

T1 sequence (P36544 23-502): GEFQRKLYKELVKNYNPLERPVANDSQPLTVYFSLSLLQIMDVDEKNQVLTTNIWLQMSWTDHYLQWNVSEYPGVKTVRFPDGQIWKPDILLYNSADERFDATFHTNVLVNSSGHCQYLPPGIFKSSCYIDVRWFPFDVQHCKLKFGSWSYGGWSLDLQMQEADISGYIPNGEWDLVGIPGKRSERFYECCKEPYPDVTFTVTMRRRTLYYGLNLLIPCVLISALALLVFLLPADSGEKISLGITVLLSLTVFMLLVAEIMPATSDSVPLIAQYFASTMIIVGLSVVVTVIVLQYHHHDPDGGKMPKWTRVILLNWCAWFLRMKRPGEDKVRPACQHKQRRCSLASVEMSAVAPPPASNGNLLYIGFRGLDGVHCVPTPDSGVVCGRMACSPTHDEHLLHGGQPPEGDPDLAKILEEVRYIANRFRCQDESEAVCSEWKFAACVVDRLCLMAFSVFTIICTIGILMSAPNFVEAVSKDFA

| Structure (SMILES) | EC50 (human α7 receptor) [µM] | melting point [°C] | Fold modulation, peak (α7 nACh receptors) | Fold modulation, AUC (α7 nACh receptors) |
| --- | --- | --- | --- | --- |
| COc1ccc(-n2nc(C)c3c(C(=O)Nc4c(C)ccnc4C)cc(C)nc32)cc1 [Compound 1, 1-(4-Methoxy-phenyl)-3,6-dimethyl-1H-pyrazolo[3,4-b]pyridine-4-carboxylic acid (2,4-dimethyl-pyridin-3-yl)-amide] | 3.9 | 224 to 227 |  |  |
| Cc1cc(C(=O)Nc2c(C)ccnc2C)c2c(C)nn(-c3ccc(C(F)(F)F)cc3)c2n1 [Compound 22, 3,6-Dimethyl-1-(4-trifluoromethyl-phenyl)-1H-pyrazolo[3,4-b]pyridine-4-carboxylic acid (2,4-dimethyl-pyridin-3-yl)-amide] | ≥ 20 |  | 8.1 | 3.2 |
| COc1nccc(C)c1NC(=O)c1cc(C)nc2c1c(C)nn2-c1ccccc1 [Compound 27, 3,6-Dimethyl-1-phenyl-1H-pyrazolo[3,4-b]pyridine-4-carboxylic acid (2-methoxy-4-methyl-pyridin-3-yl)-amide] | 5 | 172 to 174 |  |  |
| Cc1cc(C(=O)Nc2cccnc2C)c2c(C)nn(-c3ccccc3)c2n1 [Compound 31, 3,6-Dimethyl-1-phenyl-1H-pyrazolo[3,4-b]pyridine-4-carboxylic acid (2-methyl-pyridin-3-yl)-amide] | 5.6 | 208 to 209 |  |  |
| COc1ccc(-n2nc(C)c3c(C(=O)Nc4c(C)ccnc4C)cc(-c4ccccc4)nc32)cc1 [Compound 35, 1-(4-Methoxy-phenyl)-3-methyl-6-phenyl-1H-pyrazolo[3,4-b]pyridine-4-carboxylic acid (2,4-dimethyl-pyridin-3-yl)-amide] | ≥ 20 |  | 14 | 9.2 |

More lines, main results first:

| EC50 (human α7 receptor) [µM] | melting point [°C] | Structure (SMILES) | Fold modulation, peak (α7 nACh receptors) | Fold modulation, AUC (α7 nACh receptors) |
| --- | --- | --- | --- | --- |
| ≥ 20 |  | Cc1cc(C(=O)Nc2c(C)ccnc2C)c2c(C)nn(-c3ccc(S(N)(=O)=O)cc3)c2n1 [Compound 21, 3,6-Dimethyl-1-(4-sulfamoyl-phenyl)-1H-pyrazolo[3,4-b]pyridine-4-carboxylic acid (2,4-dimethyl-pyridin-3-yl)-amide] | 1.7 | 1.7 |
| ≥ 20 |  | COc1ccc(-n2nc(OC)c3c(C(=O)Nc4c(C)ccnc4C)cc(C)nc32)cc1 [Compound 24, 3-Methoxy-1-(4-methoxy-phenyl)-6-methyl-1H-pyrazolo[3,4-b]pyridine-4-carboxylic acid (2,4-dimethyl-pyridin-3-yl)-amide] | 5.1 | 2.5 |
| 5.1 | 206 to 207 | COc1cc(C)ncc1NC(=O)c1cc(C)nc2c1c(C)nn2-c1ccccc1 [Compound 29, 3,6-Dimethyl-1-phenyl-1H-pyrazolo[3,4-b]pyridine-4-carboxylic acid (4-methoxy-6-methyl-pyridin-3-yl)-amide] |  |  |
| 6.2 | 227 to 228 | Cc1cc(C(=O)Nc2cnccc2C)c2c(C)nn(-c3ccccc3)c2n1 [Compound 32, 3,6-Dimethyl-1-phenyl-1H-pyrazolo[3,4-b]pyridine-4-carboxylic acid (4-methyl-pyridin-3-yl)-amide] |  |  |
| ≥ 20 |  | Cc1cc(C(=O)Nc2c(C)ccnc2C)c2c(C)nn(-c3ccc(S(C)(=O)=O)cc3)c2n1 [Compound 34, 1-(4-Methanesulfonyl-phenyl)-3,6-dimethyl-1H-pyrazolo[3,4-b]pyridine-4-carboxylic acid (2,4-dimethyl-pyridin-3-yl)-amide] | 1.9 | 1.9 |
| ≥ 20 |  | COc1ccc(-n2nc(C)c3c(C(=O)Nc4cnccc4C#N)cc(C)nc32)cc1 [Compound 36, 1-(4-Methoxy-phenyl)-3,6-dimethyl-1H-pyrazolo[3,4-b]pyridine-4-carboxylic acid (4-cyano-pyridin-3-yl)-amide] | 7.9 | 3.9 |
| 9.5 |  | Cc1cc(C(=O)Nc2c(C)ccnc2C)c2c(C)nn(-c3ccc(O)cc3)c2n1 [Compound 37, 1-(4-Hydroxy-phenyl)-3,6-dimethyl-1H-pyrazolo[3,4-b]pyridine-4-carboxylic acid (2,4-dimethyl-pyridin-3-yl)-amide] |  |  |
